pIC50: −log10 of the molar value.
Columns and labels:
[1] = molecular target: T1, IRAK3 (Homo sapiens, UniProt Q9Y616); experiment: IRAK3 biochemical binding assay (LanthaScreen Eu Kinase Binding, TR-FRET)
T1 construct: IRAK Endogenous HTRF Degradation Assay; endogenous in cells
T1 sequence (Q9Y616 1-596): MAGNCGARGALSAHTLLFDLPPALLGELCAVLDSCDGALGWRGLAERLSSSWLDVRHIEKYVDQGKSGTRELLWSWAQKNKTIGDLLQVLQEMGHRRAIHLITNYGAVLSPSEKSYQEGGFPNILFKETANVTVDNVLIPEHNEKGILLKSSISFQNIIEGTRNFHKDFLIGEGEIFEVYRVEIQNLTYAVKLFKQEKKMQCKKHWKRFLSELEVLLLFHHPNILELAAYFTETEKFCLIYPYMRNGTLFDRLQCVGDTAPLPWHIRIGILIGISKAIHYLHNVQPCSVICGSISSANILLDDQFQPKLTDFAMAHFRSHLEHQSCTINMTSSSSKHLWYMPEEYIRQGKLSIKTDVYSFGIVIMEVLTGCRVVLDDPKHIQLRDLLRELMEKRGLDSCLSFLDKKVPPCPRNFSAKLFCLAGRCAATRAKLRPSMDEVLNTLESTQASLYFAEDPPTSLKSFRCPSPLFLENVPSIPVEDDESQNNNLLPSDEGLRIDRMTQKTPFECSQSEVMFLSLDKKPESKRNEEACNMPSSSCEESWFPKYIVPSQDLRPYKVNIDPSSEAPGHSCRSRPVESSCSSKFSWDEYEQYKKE
Procedure: Example B3. IRAK3 Biochemical Binding Assay
The LanthaScreen® Eu Kinase Binding assay was performed as described by the vendor (ThermoFisher Scientific Waltham, MA). Briefly, 100× solutions of compound were prepared in DMSO via serial dilution of the 10 mM stock solution in a 384-well reagent plate using 3-fold intervals to achieve final concentrations. 1 μL of the compound dilution series were added to the corresponding wells of a 384-well reagent plate containing 32.3 μL of 1× buffer (50 mM HEPES pH 7.4, […], 1 mM EGTA, 0.01% Brij-35). 5 μL of the buffer diluted compounds were transferred to the corresponding wells of a 384-well assay plate. 5 μL of 3× tracer was transferred to each well of the assay plate for a final tracer concentration of 10 nM. Finally, 5 μL of the 3×Eu-Anti-GST and IRAK3 mix was transferred to each well for a final concentration of 2 nM and 10 nM respectively. Reactions were allowed to incubate for 1 hour at room temperature. TR-FRET signal of the interaction (λex340/λem 665/λem 615) was read at room temperature with a delay time of 100 ρs and an integration time of 200 ρs using an Envision plate reader. Background corrected emission signal ratios at each compound concentration were used to calculate percentage of inhibition (% Inhibition). Plots of % Inhibition versus inhibitor concentrations were fit according to a dose-response equation (Eq. 1) to generate IC50 and Hill slope values using Dotmatics software (Dotmatics, Bishops Stortford, Hertfordshire, England).
Using these assays, IC50, Dmax, EC50, and DC50 values of the following compounds were determined. Dmax is defined as the maximum percent degradation achieved and DC50 is the concentration at which 50% degradation is achieved.

[2] = molecular target: T2, IRAK3-ePL (Homo sapiens, UniProt Q9Y616); experiment: IRAK3-ePL overexpressing degradation assay (InCELL Hunter luminescence, dose response); type: cell-based; conditions: for IRAK3 ePL degradation Ymin: lowest percentage of target protein remaining following compound treatment; for DC50: read-out: IRAK3 ePL degradation EC50
T2 construct: expressed in transfected cells; host or cells: 293T CRBN OE/GSPT1 G575N KI cells, lentiviral transduction, puromycin selected
Procedure: Example B1. IRAK3-ePL Overexpressing Degradation Assay
Stable cell lines were generated by the following protocol. 3×10^5 Lenti-X 293T cells (Clonetech) were plated in 0.8 mL of media in a 12-well plate and incubated overnight at 37° C./5% CO2. Packaging plasmid (0.4 μg, pMD), envelope plasmid (0.4 μg, pSP), and lentiviral transfer IRAK3-ePL plasmid (0.8 μg, TRAK3 sequence NM_007199.3) were mixed in 0.1 mL of Opti-MEM and incubated for 5 min. Simultaneously, 2.4 μL of Lipofectamine 2000 (Invitrogen) was added to 0.1 mL of Opti-MEM (Gibco) and incubated for 5 min. The plasmid DNA and lipofectamine were combined and the mixture was allowed to incubate for 20 min.DNA:Lipofectamine Opti-MEM mixtures were then added to previously plated cells dropwise and the cells were incubated for ~16 h at 37° C./5% CO2. Following incubation, the media was removed and 1.2 mL of fresh media was added per well. Lenti-X 293T cells were incubated for ~30 h at 37° C./5% CO2. […] Following incubation, media was removed from the Lenti-X 293T wells and passed through a […] filter. Part of the viral supernatant was used to transduce cells and the rest was stored at −80° C. Viruses were then added individually (0.5 mL virus) to each well of the 293T^CRBN OE/GSPT1 G575N KI cells, followed by addition of polybrene (10 mg/mL Millipore) to each well at a final concentration of 5.0 μg/mL. Cells were incubated for ~24 h at 37° C./5% CO2. After aspirating media off plates, cells were washed with DPBS, trypsinized and plated in a 10 cm dish in 15 mL of media and […] puromycin. Following incubation of cells for ~72 h at 37° C./5% CO2, media was aspirated off plates, and cells were washed with DPBS and trypsinized. The cells were plated in a 15 cm dish in 40 mL of media with 1.0 μg/mL Puromycin (Gibco) and incubated for ~72 h at 37° C./5% CO2. Following incubation, media was removed and cells were washed with DPBS and trypsinized. The majority of cells were resuspended in Invitrogen freezing media and stored away (~6-8×10^6 cells/vial).
IRAK3-ePL cellular dose response curve degradation assays were performed by the following protocol. Compounds to be tested were dispensed into a white 384-well tissue-culture treated plate using an acoustic liquid handler. Dilutions were prepared based on a 25 μL assay volume in duplicate 10 point 3-fold serial dilutions starting with a 10 μM dose. Negative control wells were included, which only contain 0.2% DMSO to calculate 100% signal. Positive control wells containing 30 μM Ataluren (luciferase inhibitor) were included to calculate the background signal level. All wells were backfilled to a final DMSO concentration of 0.2% to ensure DMSO uniformity across wells. IRAK3-ePL expressing cells (IRAK3-ePL Lenti-X 293T^CRBN/GSPT1 G575N) were washed, trypsinized, counted, and resuspended in fresh DMEM (Gibco) to give a cell concentration of 200,000 cells/mL. 25 μL of cells (5,000 cells/well) were dispensed into the wells of the 384-well plate prespotted with compounds in the previous step and incubated overnight at 37° C./5% CO2. Following incubation, the 384-well plate was taken out of the incubator and left at room temperature for 30 min. InCELL hunter reagent was prepared according to manufacturer's instructions (EA reagent, lysis buffer, and substrate reagent in a 1:1:4 ratio, Cat #96-0002, DiscoverX), which was added to the 384-well plate 25 μL per well. Following the incubation of the plate for 1 h at room temperature, the luminescence signal was read using a ViewLux plate reader. Data was processed and analyzed in ActivityBase software. In short, the average luminescence values of the positive control wells were subtracted from the rest of the wells for background correction, and all luminescence values were normalized to the DMSO control wells. The average value of the DMSO control wells was set to equal 100% of the relative IRAK3-ePL protein levels. […]

SMILES | pIC50 [1] | IRAK3 ePL degradation Ymin [2] | DC50 [2]
O=C1CCC(c2ccc(N3CCN(CCN4CCC(n5cc(Nc6ncc(C7CC7)n7ccnc67)cn5)CC4)CC3)cc2)C(=O)N1 (centres unmarked) [Compound 46, 3-(4-(4-(2-(4-(4-((5-cyclopropylimidazo[1,2-a]pyrazin-8-yl)amino)-1H-pyrazol-1-yl)piperidin-1-yl)ethyl)piperazin-1-yl)phenyl) piperidine-2,6-dione] |  | 24% | 0.51 nM
O=C1CCC(c2ccc(N3CCN(CC[C@H]4CC[C@H](n5cc(Nc6ncc(C7CC7)n7ccnc67)cn5)CC4)CC3)cc2)C(=O)N1 (stereo partly drawn) [Compound 47, 3-(4-(4-(2-((trans)-4-(4-((5-cyclopropylimidazo[1,2-a]pyrazin-8-yl)amino)-1H-pyrazol-1-yl)cyclohexyl)ethyl)piperazin-1-yl)phenyl) piperidine-2,6-dione] |  | 23% | 0.61 nM
CN1CCOc2ccc(-c3cnc(Nc4cnn(C5CCN(CCN6CCN(c7ccc(C8CCC(=O)NC8=O)cc7)CC6)CC5)c4)c4nccn34)cc21 (centres unmarked) [Compound 48, 3-(4-(4-(2-(4-(4-((5-(4-methyl-3,4-dihydro-2H-benzo[b][1,4]oxazin-6-yl)imidazo[1,2-a]pyrazin-8-yl)amino)-1H-pyrazol-1-yl)piperidin-1-yl)ethyl)piperazin-1-yl)phenyl) piperidine-2,6-dione] |  | 24% | 0.77 nM
Cc1cc(-c2cnc(Nc3cnn([C@H]4C[C@H](CCN5CCN(c6ccc(C7CCC(=O)NC7=O)cc6)CC5)C4)c3)c3nccn23)c(F)cc1F (stereo partly drawn) [Compound 66, 3-(4-(4-(2-((trans)-3-(4-((5-(2,4-difluoro-5-methylphenyl)imidazo[1,2-a]pyrazin-8-yl)amino)-1H-pyrazol-1-yl)cyclobutyl)ethyl)piperazin-1-yl)phenyl) piperidine-2,6-dione] |  | 32% | 9.6 nM
Cc1cc(-c2cnc(Nc3cnn([C@H]4CC[C@H](CN5CCN(c6ccc(C7CCC(=O)NC7=O)cc6)CC5)CC4)c3)c3nccn23)c(F)cc1F (stereo partly drawn) [Compound 67, 3-(4-(4-(((trans)-4-(4-((5-(2,4-difluoro-5-methylphenyl)imidazo[1,2-a]pyrazin-8-yl)amino)-1H-pyrazol-1-yl)cyclohexyl)methyl)piperazin-1-yl)phenyl) piperidine-2,6-dione] |  | 38% | 5.5 nM
O=C1CCC(c2ccc(N3CCN(CCN4CCC(n5cc(Nc6ncc(C7=CCCC7)n7ccnc67)cn5)CC4)CC3)cc2)C(=O)N1 (centres unmarked) [Compound 68, 3-(4-(4-(2-(4-(4-((5-(cyclopent-1-en-1-yl)imidazo[1,2-a]pyrazin-8-yl)amino)-1H-pyrazol-1-yl)piperidin-1-yl)ethyl)piperazin-1-yl)phenyl) piperidine-2,6-dione] |  | 24% | 0.54 nM
Cc1nc(Nc2cnn(C3CCN(CCN4CCN(c5ccc(C6CCC(=O)NC6=O)cc5)CC4)CC3)c2)c2nccn2c1C (centres unmarked) [Compound 84, 3-(4-(4-(2-(4-(4-((5,6-dimethylimidazo[1,2-a]pyrazin-8-yl)amino)-1H-pyrazol-1-yl)piperidin-1-yl)ethyl)piperazin-1-yl)phenyl)piperidine-2,6-dione] | 7.62 |  | 
O=C1CCC(c2ccc(N3CCN(CCN4CCC(n5cc(Nc6ncc(-c7ccc8c(c7)CC8)n7ccnc67)cn5)CC4)CC3)cc2)C(=O)N1 (centres unmarked) [Compound 85, 3-(4-(4-(2-(4-(4-((5-(bicyclo[4.2.0]octa-1(6),2,4-trien-3-yl)imidazo[1,2-a]pyrazin-8-yl)amino)-1H-pyrazol-1-yl)piperidin-1-yl)ethyl)piperazin-1-yl)phenyl) piperidine-2,6-dione] | 7.60 |  | 

More lines, now with the values ahead:

pIC50 [1] | IRAK3 ePL degradation Ymin [2] | DC50 [2] | SMILES
10.30 |  |  | Cc1cc(-c2cnc(Nc3cnn([C@H]4CCCN(CCN5CCN(c6ccc(C7CCC(=O)NC7=O)cc6)CC5)CC4)c3)c3nccn23)c(F)cc1F (single isomer, unassigned) [Compound 111]
9.32 |  |  | Cc1cc(-c2cnc(Nc3cnn([C@@H]4CCCN(CCN5CCN(c6ccc(C7CCC(=O)NC7=O)cc6)CC5)CC4)c3)c3nccn23)c(F)cc1F (single isomer, unassigned) [Compound 112]
 | 24% | 2.8 nM | Cc1cc(-c2cnc(Nc3cnn(C4CCN(CCN5CCN(c6ccc(C7CCC(=O)NC7=O)cc6Cl)CC5)CC4)c3)c3nccn23)c(F)cc1F (centres unmarked) [Compound 43, 3-(3-chloro-4-(4-(2-(4-(4-((5-(2,4-difluoro-5-methylphenyl)imdazo [1,2-a]pyrazin-8-yl)amino)-1H-pyrazol-1-yl)piperidin-1-yl)ethyl)piperazin-1-yl)phenyl) piperidine-2,6-dione]
 | 24% | 2.4 nM | Cc1cc(-c2cnc(Nc3cnn(C4CCN(CCN5CCN(c6ccc(C7CCC(=O)NC7=O)cc6F)CC5)CC4)c3)c3nccn23)c(F)cc1F (centres unmarked) [Compound 49, 3-(4-(4-(2-(4-(4-((5-(2,4-difluoro-5-methylphenyl)imdazo [1,2-a]pyrazin-8-yl)amino)-1H-pyrazol-1-yl)piperidin-1-yl)ethyl)piperazin-1-yl)-3-fluorophenyl)piper idine-2,6-dione]

Reference: patent US20260216347A1, “Substituted Imidazo-Based Compounds as Ligand Directed Degraders of IRAK3” (Celgene Corporation, priority 2022, published 2026)
